What was measured:
[1] = test system: HCV replicon (NS5A1b) in Huh-7 cells; assay: microbe, parasite or virus in culture; type: cell-based; conditions: Hepatitis C virus, 72 h; NS5A1b; HCV replicon-containing Huh-7 cells, three days; read-out: EC50 (μM) NS5A1b
Procedure: (§1) Compounds claimed herein are tested for the ability to inhibit viral replication of the Hepatitis C replicon in cultured cells in which the HCV replicon construct has been incorporated. The HCV replicon system was described by Bartenschlager, et. al (Science, 285, pp. 110-113 (1999)). The replicon system is predictive of in vivo anti-HCV activity; compounds that are active in humans uniformly evidence activity in the replicon assay.
(§2) In this assay HCV replicon containing cells are treated with different concentrations of the test compound to ascertain the ability of the test compound to suppress replication of the HCV replicon. As a positive control, HCV replicon-containing cells are treated with different concentrations of interferon alpha, a known inhibitor of HCV replication. The replicon assay system includes Neomycin Phosphotransferase (NPT) as a component of the replicon itself in order to detect the transcription of replicon gene products in the host cell. Cells in which the HCV replicon is actively replicating have high levels of NPT; the level of NPT is proportional to HCV replication. […] The NPT level of each sample is measured using a captured ELISA.
(§3) A protocol for testing compounds for the ability to inhibit viral replication of the Hepatitis C replicon cultured cells in which the replicon construct has been incorporated, follows.
(§4) The HCV replicon contains, 5′-3′, the HCV-IRES, the neomycin phosphotransferase (neo) gene, the IRES of encephalomyocarditis virus, which directs translation of HCV sequences NS3 to NS5B, and the 3′-NTR. The sequence of the HCV replicon has been deposited in GenBank (Accession no. AJ242652).
(§5) The replicon is transfected into Huh-7 cells using standard methods such as electroporation.
(§6) The equipment and materials include, but are not limited to, Huh-7 HCV replicon-containing cells, maintenance media (DMEM (Dulbecco's modified Eagle media) supplemented with 10% FBS, L-glutamine, non-essential amino acids, penicillin (100 units/ml), streptomycin (100 micrograms/ml), and 500 micrograms/ml of Geneticin (G418), screening media (DMEM supplemented with 10% FBS, L-glutamine, non-essential amino acids, penicillin (100 units/ml) and streptomycin (100 micrograms/ml), 96 well tissue culture plates (flat bottom), 96 well plates (U bottom for drug dilution), Interferon alpha for positive control, fixation reagent (such as methanol: acetone), primary antibody (rabbit anti-NPTII), secondary antibody: Eu-N1 1, and enhancement solution.
(§7) HCV replicon-containing cells support high levels of viral RNA replicon replication when their density is suitable. Over-confluency causes decreased viral RNA replication. Therefore, cells must be kept growing in log phase in the presence of 500 micrograms/ml of G418. Generally, cells should be passed twice a week at 1:4-6 dilution. Cell maintenance is conducted as follows:
(§8) HCV replicon-containing cells are examined under a microscope to ensure that cells growing well. Cells are rinsed once with PBS and 2 ml trypsin is added. The cell/trypsin mixture is incubated at 37° C. in a CO2 incubator for 3-5 minutes. After incubation 10 ml of complete media is added to stop the trypsinization reaction. Cells are blown gently, put into a 15 ml tube, and spun at 1200 rpm for 4 minutes. The trypsin/medium solution is removed. Medium (5 ml) is added and the cells are mixed carefully. The cells are counted.
(§9) The cells are then seeded onto 96-well plates at a density of 6000-7500 cells/100 microliters/well (6-7.5×10^5 cells/10 ml/plate). The plates are then incubated at 37° C. in a 5% CO2 incubator.
(§10) Cells are examined under a microscope approximated 24 hours after seeding and prior to adding drugs. If counting and dilution were performed correctly, cells are 60-70% confluent and nearly all cells should attach and spread evenly in the well.
(§11) HCV replicon-containing cells are rinsed with once PBS once; 2 mls of trypsin are then added. Cells are incubated at 37° C. in a 5% CO2 incubator for 3-5 minutes. […]

HCV replicon (NS5A1b) = assay: microbe, parasite or virus in culture; type: cell-based; conditions: Hepatitis C virus, 72 h, HCV replicon-containing cells, three days
Procedure: as §1, §2, §3, §4, §5, §6, §7, §8, §9, §10, §11

SMILES | EC50 [1] [µM] | EC50 (HCV replicon (NS5A1b)) [µM]
COC(=O)N[C@H](C(=O)N1CCC[C@H]1c1nc2cc(-c3cc4ccc3CCc3ccc(c(-c5ccc6[nH]c([C@@H]7CCCN7C(=O)[C@@H](NC(=O)OC)[C@@H](C)OC)nc6c5)c3)CC4)ccc2[nH]1)[C@@H](C)OC [Compound 109] | 0.00883 | 0.0118
CC[C@H](C)[C@H](NC(=O)OC)C(=O)N1CCC[C@H]1c1nc2cc(-c3cc4ccc3CCc3ccc(c(-c5ccc6[nH]c([C@@H]7CCCN7C(=O)[C@@H](NC(=O)OC)[C@@H](C)CC)nc6c5)c3)CC4)ccc2[nH]1 [Compound 103] | < 0.00317 | 0.47
COC(=O)N[C@@H](CCSC)C(=O)N1C[C@H](F)C[C@H]1c1nc2cc(-c3cc4ccc3CCc3ccc(c(-c5ccc6[nH]c([C@@H]7C[C@@H](F)CN7C(=O)[C@H](CCSC)NC(=O)OC)nc6c5)c3)CC4)ccc2[nH]1 [Compound 88] | 0.00643 | 0.0618
CC[C@H](C)[C@H](NC(=O)OC)C(=O)N1[C@H](c2nc3cc(-c4cc5ccc4CCc4ccc(c(-c6ccc7[nH]c([C@@H]8C[C@@H]9CCCC[C@@H]9N8C(=O)[C@@H](NC(=O)OC)[C@@H](C)CC)nc7c6)c4)CC5)ccc3[nH]2)C[C@@H]2CCCC[C@@H]21 [Compound 102] | 0.0119 | 0.0358
COC(=O)N[C@H](C(=O)N1C[C@H](F)C[C@H]1c1nc2cc(-c3cc4ccc3CCc3ccc(c(-c5ccc6[nH]c([C@@H]7C[C@@H](F)CN7C(=O)[C@@H](NC(=O)OC)C(C)C)nc6c5)c3)CC4)ccc2[nH]1)C(C)C [Compound 87] | 0.00653 | 0.0184
COC(=O)N[C@H](C(=O)N1C2CCC(C2)[C@H]1c1nc2cc(-c3cc4ccc3CCc3ccc(c(-c5ccc6[nH]c([C@@H]7C8CCC(C8)N7C(=O)[C@@H](NC(=O)OC)C(C)C)nc6c5)c3)CC4)ccc2[nH]1)C(C)C [Compound 42] | < 0.0032 | 0.0044
COC(=O)N[C@H](C(=O)N1CCC[C@H]1c1nc(-c2ccc(-c3cc4c(-c5c[nH]c([C@@H]6CCCN6C(=O)[C@@H](NC(=O)OC)C(C)C)n5)cc3CCc3ccc(cc3)CC4)cc2)c[nH]1)C(C)C [Compound 46] | < 0.00317 | –

From US10092547B2, “Substituted aliphanes, cyclophanes, heteraphanes, heterophanes, hetero- heteraphanes and metallocenes useful for treating HCV infections” (priority 2011, dated 2018)
